In patent publication US20120258980A1, “Antibacterial Agent for Drug-Resistant Bacteria, Method for Screening for Same, and Use of Same” (priority 2009, published 2012):
Values after ≈ are worked out from the molar mass of the structure shown. Where two headings read alike, the source gives them in different places.

Tests used:
[1] = test system: MRSA, CA-MRSA and MSSA of Staphylococcus aureus; test: MIC measurement, Test Example 4 (MRSA, CA-MRSA and MSSA strains); assay type: cell-based; settings: Staphylococcus aureus
Procedure, shortened: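 S. aureus strains (FDA209P control) grown overnight in TSB at 37° C, resuspended in CAMHB, adjusted to A578 0.3 and diluted 500-fold. Equal volume added to CAMHB with serial compound concentrations, incubated statically overnight at 37° C. MIC read visually as lowest concentration without turbidity.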

[2] = test system: methicillin-susceptible S. aureus (MSSA), MRSA and mutants thereof; test: MIC measurement, Test Example 3 (MSSA, MRSA and sequential gyrA/grlA quinolone-resistant mutants); assay type: cell-based, Staphylococcus aureus; settings: Staphylococcus aureus
Procedure, shortened: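 Clinical isolates and stepwise gyrA/grlA quinolone-resistant mutants grown overnight at 37° C in TSB, adjusted to A578 0.3 in CAMHB, diluted 500-fold and mixed 1:1 with drug dilutions in CAMHB.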

Enterococcus faecalis = test: MIC measurement, Test Example 6 (enterococcus); assay type: cell-based; settings: Enterococcus faecalis, read-out: MIC
Procedure, shortened: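 E. faecalis strains, including vancomycin-resistant NCTC12201 and NCTC12203, pre-grown overnight in TSB at 37° C, set to A578 0.3 in CAMHB, then diluted 500-fold.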

Cc1cc(=O)n2c3c(c4c(cc13)c(CO)cc(=O)n4C)OC2 [NM, nybomycin]
MIC ([1]; ATCC 29213 / MRSA / MSSA, ATCC 29213, MSSA): 64 µg/mL (≈ 215 µM) | MIC ([1]; COL, MRSA): > 64 µg/mL | MIC ([1]; FDA209P / MRSA / MSSA, FDA209P, MSSA): 64 µg/mL (≈ 215 µM) | MIC ([1]; ISA12-1, MRSA): > 64 µg/mL | MIC ([1]; ISA12-2, MRSA): > 64 µg/mL | MIC ([1]; ISA35-1, MRSA): > 64 µg/mL | MIC ([1]; ISA37-1, MSSA): > 64 µg/mL | MIC ([1]; ISA49-1, MSSA): > 64 µg/mL | MIC ([1]; ISA51-1, MSSA): > 64 µg/mL | MIC ([1]; ISA56-3, MRSA): > 64 µg/mL | MIC ([1]; ISA58-1, MRSA): 16 µg/mL (≈ 53.6 µM) | MIC ([1]; ISA62-1, MRSA): > 64 µg/mL | MIC ([1]; ISA73-1, MSSA): > 64 µg/mL | MIC ([1]; KBSA32, MRSA): > 64 µg/mL | MIC ([1]; KBSA34, MRSA): > 64 µg/mL | MIC ([1]; KBSA72, MRSA): ≤ 0.063 µg/mL | MIC ([1]; KBSA96, MRSA): 0.125 µg/mL (≈ 0.419 µM) | MIC ([1]; KBSA171, MRSA): 0.25 µg/mL (≈ 0.838 µM) | MIC ([1]; KSA24, MRSA): 0.5 µg/mL (≈ 1.68 µM) | MIC ([1]; KSA31, MRSA): 1 µg/mL (≈ 3.35 µM) | MIC ([1]; KSA36, MRSA): ≤ 0.063 µg/mL | MIC ([1]; MRSA / MSSA / NCTC 8325, NCTC 8325, MSSA): > 64 µg/mL | MIC ([1]; MRSA / MSSA / USA300, USA300 FPR3757, CA-MRSA): 0.25 µg/mL (≈ 0.838 µM) | MIC ([1]; MW2, CA-MRSA): 64 µg/mL (≈ 215 µM) | MIC ([1]; N315, MRSA): 64 µg/mL (≈ 215 µM) | MIC ([2]; FDA209P / MRSA / MSSA, FDA209P (MSSA), control, read-out: MIC): > 64 µg/mL | MIC ([2]; MR5867 (MRSA), clinical isolate parent strain, no mutation): > 64 µg/mL | MIC ([2]; MR5867-1, first-step quinolone-resistant mutant, grlA E84K): > 64 µg/mL | MIC ([2]; MS5935 (MSSA), clinical isolate parent strain, no mutation, read-out: MIC): > 64 µg/mL | MIC ([2]; MS5935-1, first-step quinolone-resistant mutant, grlA S80F): > 64 µg/mL | MIC ([2]; MS5952 (MSSA), clinical isolate parent strain, no mutation, read-out: MIC): > 64 µg/mL | MIC ([2]; MS5952-1, first-step quinolone-resistant mutant, grlA S80Y): > 64 µg/mL | MIC (Enterococcus faecalis; E. faecalis 36-15672, quinolone-susceptible enterococci): > 64 µg/mL | MIC (Enterococcus faecalis; E. faecalis 36-15673, quinolone-susceptible enterococci): > 64 µg/mL | MIC (Enterococcus faecalis; E. faecalis 36-15678, quinolone-susceptible enterococci): > 64 µg/mL | MIC (Enterococcus faecalis; E. faecalis 36-15686, quinolone-resistant enterococci): 0.5 µg/mL (≈ 1.68 µM) | MIC (Enterococcus faecalis; E. faecalis 36-15688, quinolone-susceptible enterococci): > 64 µg/mL | MIC (Enterococcus faecalis; E. faecalis 36-15694, quinolone-resistant enterococci): 1 µg/mL (≈ 3.35 µM) | MIC (Enterococcus faecalis; E. faecalis 36-15696, quinolone-susceptible enterococci): > 64 µg/mL | MIC (Enterococcus faecalis; E. faecalis 36-15703, quinolone-resistant enterococci): 2 µg/mL (≈ 6.7 µM) | MIC (Enterococcus faecalis; E. faecalis 36-15716, quinolone-resistant enterococci): 1 µg/mL (≈ 3.35 µM) | MIC (Enterococcus faecalis; E. faecalis 36-15718, quinolone-susceptible enterococci): 32 µg/mL (≈ 107 µM) | MIC (Enterococcus faecalis; E. faecalis 36-15720, quinolone-susceptible enterococci): > 64 µg/mL | MIC (Enterococcus faecalis; E. faecalis 36-15722, quinolone-resistant enterococci): 1 µg/mL (≈ 3.35 µM) | MIC (Enterococcus faecalis; E. faecalis 36-15726, quinolone-resistant enterococci): 0.5 µg/mL (≈ 1.68 µM) | MIC (Enterococcus faecalis; E. faecalis 36-15730, quinolone-susceptible enterococci): > 64 µg/mL | MIC (Enterococcus faecalis; E. faecalis 36-15736, quinolone-susceptible enterococci): > 64 µg/mL | MIC (Enterococcus faecalis; E. faecalis 36-15741, quinolone-susceptible enterococci): > 64 µg/mL | MIC (Enterococcus faecalis; NCTC 12201 / VRE, E. faecalis NCTC12201, vancomycin-resistant (VRE), quinolone-susceptible enterococci): 8 µg/mL (≈ 26.8 µM) | MIC (Enterococcus faecalis; NCTC 12203 / VRE, E. faecalis NCTC12203, vancomycin-resistant (VRE), quinolone-susceptible enterococci): 16 µg/mL (≈ 53.6 µM)
